Patent US10912788B2, “Methods and compositions for preventing and treating conditions related to alpha-synuclein” (PurePharm, Inc., priority 2018, dated 2021)

What was measured:
[1] = tested on: pediatric treatment-resistant inflammatory bowel disease (Crohn's disease and ulcerative colitis patients); conditions: oral administration; reduced symptoms of gut inflammation, increased sulphated GAG expression; cited from earlier work
[2] = cited from earlier work
[3] = tested on: PD patients with chronic constipation; assay: Open-label pilot study of GlcNAc (Villicote) on motor and constipation symptoms in Parkinson's Disease; type: in vivo, human
Text: Participants were enlisted in a movement disorders outpatient clinic in Toronto, Canada. Inclusion criteria were a diagnosis of PD according to UK PD society brain bank criteria and chronic constipation that was not improved by laxatives. Exclusion criteria were the co-occurrence of conditions biasing results and/or changes of medications (including anti-constipation drugs).
This was an open-label study that sought to evaluate the efficacy of GlcNAc (Villicote®, Wellesley Therapeutics Inc.) on PD patients with chronic constipation who have previously used laxatives to relieve symptoms of constipation, to little or no avail. […] The self-reported assessments evaluated motor condition and dysfunction (fluctuation and dyskinesia) using section IV of the Unified Parkinson's Disease Rating Scale (UPDRS IV) and asking about presence and frequency of delayed onset (Delayed ON) and Failure of “on” response (no ON); Perceived severity and improvement in of motor dysfunction, and constipation by means of both Patients' Global Impression-Severity (PGI-S) and Patients' Global Impressions of Change (PGI-C) scale accordingly. Severity of Constipation was also evaluated by means of questions 5 and 6 of SCOPA-AUT [17] and the Constipation Scoring System (CSS). In addition, side-effects experienced while on Villicote and qualitative feedback on the product was noted.
Their age and disease duration was 65.7±7.5 and 11.7±5.1 years, respectively. Mean UPDRS-III at study entry was 22.1±10.9.

[4] = PD patients treated with GlcNAc
[5] = PD patients treated with GlcNAc, motor fluctuations

Q: With `CC(=O)N[C@H]1C(O)O[C@H](CO)[C@@H](O)[C@@H]1O` (some centres unmarked) [GlcNAc, N-acetylglucosamine] as the compound, how does the “efficacy in pediatric treatment-resistant inflammatory bowel disease” value [1] read?
A: therapeutic efficacy

Q: And the solubility in water [2]?
A: 25%

Q: What about the No-ON ([3]; After GlcNAc, 1 month time point, PD patients, before GlcNAc 0.0) of the same compound?
A: 0.0

Q: What about the Delayed-ON ([3]; After GlcNAc, 1 month time point, PD patients, before GlcNAc 0.1 ± 0.4) of the same compound?
A: 0.1 ± 0.4

Q: What about the “SCOPA-AUT (questions 5 and 6)” value ([3]; After GlcNAc, 1 month time point, PD patients, before GlcNAc 3.9 ± 1.9) of the same compound?
A: 3.1 ± 1.7

Q: And the UPDRS-IV ([3]; After GlcNAc, 1 month time point, PD patients, before GlcNAc 3.9 ± 2.4)?
A: 3.9 ± 2.4

Q: And the “CSS (Constipation Scoring System)” value ([3]; After GlcNAc, 1 month time point, PD patients, before GlcNAc 9.4 ± 6.1, Wilcoxon Z=−2.043, P=0.041)?
A: 6.5 ± 3.9

Q: What about the tolerability ([3]; PD patients) of the same compound?
A: well-tolerated

Q: And the anti-constipation effect ([3]; PD patients failing drugs for constipation)?
A: effective anti-constipation agent

Q: What about the “PGI-I Constipation” value [3, 4] of the same compound?
A: 1.6 ± 1.4

Q: What about the “PGI-S Constipation” value [3, 4] of the same compound?
A: 2.8 ± 1.3

Q: And the “PGI-I Fluctuation” value [3, 5]?
A: 0

Q: What about the “PGI-S Fluctuation” value [3, 5] of the same compound?
A: 0.8 ± 0.9

Q: What about the “effect on motor functions” value ([3]; PD patients, short follow-up) of the same compound?
A: No effect was observed
